Assay results taken from ChEMBL document CHEMBL4811239, “Insertion of metal carbenes into the anilinic N-H bond of unprotected aminobenzenesulfonamides delivers low nanomolar inhibitors of human carbonic anhydrase IX and XII isoforms” (Eur J Med Chem, 2021).
Active and inactive are the calls of the source. No cut-off for these calls is given here.

Key:
[1] = test system: MDA-MB-231; experiment: Antiproliferative activity against human MDA-MB-231 cells assessed as reduction in cell viability at 100 uM after 72 hrs under hypoxic condition by MTT assay; type: functional
[2] = test system: MDA-MB-231; experiment: Antiproliferative activity against human MDA-MB-231 cells assessed as reduction in cell viability at 100 uM after 72 hrs under normoxic condition by MTT assay; type: functional
[3] = test system: MCF7; experiment: Antiproliferative activity against human MCF7 cells assessed as cell survival at 100 uM after 72 hrs under hypoxic condition by MTT assay; type: functional; settings: for viability at 100 µM: read-out: Activity
[4] = test system: MCF7; experiment: Antiproliferative activity against human MCF-7 cells assessed as cell survival at 100 uM after 72 hrs under normoxic condition by MTT assay; type: functional; settings: for viability at 100 µM: read-out: Activity
[5] = biological target: Carbonic anhydrase 1 (Homo sapiens, UniProt P00915); experiment: Inhibition of recombinant human CA1 pre-incubated for 15 mins prior to testing by phenol red-based stopped-flow CO2 hydration assay
Chain of Carbonic anhydrase 1 (P00915 whole entry): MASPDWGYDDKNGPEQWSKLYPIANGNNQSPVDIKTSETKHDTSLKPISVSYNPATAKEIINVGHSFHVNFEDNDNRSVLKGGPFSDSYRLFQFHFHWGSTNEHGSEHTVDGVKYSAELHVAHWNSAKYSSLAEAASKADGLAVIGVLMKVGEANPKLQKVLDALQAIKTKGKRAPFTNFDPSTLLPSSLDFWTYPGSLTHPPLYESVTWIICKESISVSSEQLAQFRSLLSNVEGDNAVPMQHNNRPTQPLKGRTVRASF

[6] = biological target: Carbonic anhydrase 12 (Homo sapiens, UniProt O43570); experiment: Inhibition of recombinant human CA12 pre-incubated for 15 mins prior to testing by phenol red-based stopped-flow CO2 hydration assay
Chain of Carbonic anhydrase 12 (O43570 whole entry): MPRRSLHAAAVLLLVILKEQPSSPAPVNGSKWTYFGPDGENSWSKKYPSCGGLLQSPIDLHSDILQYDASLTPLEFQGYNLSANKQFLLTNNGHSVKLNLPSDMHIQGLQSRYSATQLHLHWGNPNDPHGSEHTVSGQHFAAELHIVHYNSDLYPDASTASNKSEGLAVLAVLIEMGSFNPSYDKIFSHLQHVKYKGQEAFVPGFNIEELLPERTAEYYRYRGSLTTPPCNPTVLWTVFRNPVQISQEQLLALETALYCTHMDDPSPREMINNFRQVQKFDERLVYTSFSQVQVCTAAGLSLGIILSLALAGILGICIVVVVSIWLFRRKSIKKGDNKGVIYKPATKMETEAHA

[7] = biological target: Carbonic anhydrase 9 (Homo sapiens, UniProt Q16790); experiment: Inhibition of recombinant human CA9 pre-incubated for 15 mins prior to testing by phenol red-based stopped-flow CO2 hydration assay
[8] = Antiproliferative activity against human WI26VA4 cells assessed as reduction in cell viability after 72 hrs under hypoxic condition by MTT assay; settings: WI26VA4, 72 h
[9] = test system: MDA-MB-231; experiment: Antiproliferative activity against human MDA-MB-231 cells assessed as reduction in cell viability after 72 hrs under hypoxic condition by MTT assay; settings: MDA-MB-231, 72 h
[10] = Antiproliferative activity against human WI26VA4 cells assessed as reduction in cell viability after 72 hrs under normoxic condition by MTT assay; settings: WI26VA4, 72 h
[11] = test system: MCF7; experiment: Antiproliferative activity against human MCF7 cells assessed as reduction in cell viability after 72 hrs under hypoxic condition by MTT assay; settings: MCF7, 72 h
[12] = test system: MDA-MB-231; experiment: Antiproliferative activity against human MDA-MB-231 cells assessed as reduction in cell viability after 72 hrs under normoxic condition by MTT assay; settings: MDA-MB-231, 72 h
[13] = test system: MCF7; experiment: Antiproliferative activity against human MCF7 cells assessed as reduction in cell viability after 72 hrs under normoxic condition by MTT assay; settings: MCF7, 72 h

| SMILES | Activity [1] | Activity [2] | Activity [3] | Activity [4] | Ki [5] | Ki [6] | Ki [7] | viability at 100 µM [3] | IC50 [8] | IC50 [9] | IC50 [10] | viability at 100 µM [4] | IC50 [11] | IC50 [12] | IC50 [13] |
| --- | --- | --- | --- | --- | --- | --- | --- | --- | --- | --- | --- | --- | --- | --- | --- |
| COc1ccc(C(=O)CNc2cccc(S(N)(=O)=O)c2)cc1 | inactive | inactive | inactive | inactive | 0.92 µM | 0.189 µM | 0.0543 µM |  |  |  |  |  |  |  |  |
| CCOC(=O)C(Nc1cccc(S(N)(=O)=O)c1)C(=O)c1ccccc1 (configuration not stated) | 30% | 30% | inactive | inactive | 1.57 µM | 0.0829 µM | 0.0586 µM |  |  |  |  |  |  |  |  |
| COC(=O)C(Nc1cccc(S(N)(=O)=O)c1)C(=O)c1ccc(OC)cc1 (configuration not stated) | inactive | inactive | inactive | inactive | 2.55 µM |  | 0.0919 µM |  |  |  |  |  |  |  |  |
| COC(=O)C(Nc1ccc(S(N)(=O)=O)cc1)C(=O)c1ccccc1OC (configuration not stated) |  |  |  |  | 0.829 µM | 0.0265 µM | 0.0256 µM |  |  |  |  |  |  |  |  |
| NS(=O)(=O)c1ccc(NC2CCN(c3cccc(C(F)(F)F)c3)C2=O)cc1 (configuration not stated) | inactive | inactive | inactive | inactive | 0.463 µM | 0.0138 µM | 0.0197 µM |  |  |  |  |  |  |  |  |
| NS(=O)(=O)c1ccc(NC2CCN(c3nccs3)C2=O)cc1 (configuration not stated) | inactive | inactive | inactive | inactive | 0.138 µM | 0.0188 µM | 0.0368 µM |  |  |  |  |  |  |  |  |
| CCOC(=O)C(C(=O)Nc1ccc(S(N)(=O)=O)cc1)C(C)C (configuration not stated) | inactive | inactive | inactive | inactive | 0.0569 µM |  | 0.032 µM |  |  |  |  |  |  |  |  |
| CC(C)OC(=O)C(Nc1ccc(S(N)(=O)=O)cc1)C(=O)OC(C)C | inactive | inactive | inactive | inactive | 0.105 µM | 0.0614 µM | 0.0281 µM |  |  |  |  |  |  |  |  |
| COCC(=O)C(Nc1ccc(S(N)(=O)=O)cc1)C(=O)OC (configuration not stated) | inactive | inactive | inactive | inactive | 0.0698 µM | 0.0247 µM | 0.0641 µM |  |  |  |  |  |  |  |  |
| COCCOC(=O)C(Nc1ccc(S(N)(=O)=O)cc1)C(=O)OCCOC | inactive | inactive | inactive | inactive | 0.0858 µM | 0.045 µM | 0.0368 µM |  |  |  |  |  |  |  |  |
| NS(=O)(=O)c1cccc(NCC(=O)N2CCN(Cc3ccc(Cl)cc3)CC2)c1 | inactive | inactive | inactive | inactive | 3.95 µM | 0.0361 µM | 0.116 µM |  |  |  |  |  |  |  |  |
| Cc1ccc(N2C(=O)C(Cc3ccc(Cl)cc3)=C(Nc3cccc(S(N)(=O)=O)c3)C2=O)cc1 |  |  |  |  | > 10 µM | 1.07 µM | 0.635 µM | 10% | 35.6 µM | 36.8 µM | 22 µM | 10% | 15.3 µM | 37.2 µM | 14.9 µM |
| CCOC(=O)C(C(=O)Nc1ccc(S(N)(=O)=O)cc1)c1ccccc1 (configuration not stated) | inactive | inactive | inactive | inactive | 0.311 µM | 0.0416 µM | 0.0615 µM |  |  |  |  |  |  |  |  |
| COc1ccc(C(=O)CNc2ccc(S(N)(=O)=O)cc2)cc1 | inactive | inactive | Active | Active | 0.124 µM | 0.0817 µM | 0.0101 µM |  |  |  |  |  |  |  |  |
| CC(C)(C)C(=O)CNc1cccc(S(N)(=O)=O)c1 | inactive | inactive | inactive | inactive | 0.343 µM | 0.0241 µM | 0.0417 µM |  |  |  |  |  |  |  |  |
| CCOC(=O)C(Nc1ccc(S(N)(=O)=O)cc1)c1ccc(OC)c(OC)c1 (configuration not stated) | inactive | inactive | inactive | inactive | 5.88 µM | 0.0357 µM | 0.0065 µM |  |  |  |  |  |  |  |  |
| CCOC(=O)C(Nc1ccc(S(N)(=O)=O)cc1)c1ccc(Cl)cc1 (configuration not stated) | 30% | 30% | inactive | inactive | 0.135 µM | 0.063 µM | 0.0543 µM |  |  |  |  |  |  |  |  |

| SMILES | Activity [1] | Activity [2] | Activity [3] | Activity [4] | Ki [5] | Ki [6] | Ki [7] | viability at 100 µM [3] | IC50 [8] | IC50 [9] | IC50 [10] | viability at 100 µM [4] | IC50 [11] | IC50 [12] | IC50 [13] |
| --- | --- | --- | --- | --- | --- | --- | --- | --- | --- | --- | --- | --- | --- | --- | --- |
| CCOC(=O)C(Nc1ccc(S(N)(=O)=O)cc1)C(=O)c1ccc(OC)cc1 (configuration not stated) | inactive | inactive | inactive | inactive | 0.314 µM | 0.0165 µM | 0.0125 µM |  |  |  |  |  |  |  |  |
| Cc1ccc(N2C(=O)C(Cc3ccc(Cl)cc3)=C(Nc3ccc(S(N)(=O)=O)cc3)C2=O)cc1 |  |  |  |  | > 10 µM | 0.129 µM | 0.0819 µM | 10% | 26.2 µM | 15.6 µM | 21.9 µM | 10% | 11.5 µM | 16.6 µM | 10.8 µM |
| CCOC(=O)C(Nc1ccc(S(N)(=O)=O)cc1)C(=O)OCC | inactive | inactive | inactive | inactive | 0.135 µM | 0.0572 µM | 0.0524 µM |  |  |  |  |  |  |  |  |
| Cc1ccc(C(=O)CNc2ccc(S(N)(=O)=O)cc2)cc1 | inactive | inactive | inactive | inactive | 0.0533 µM | 0.0674 µM | 0.0152 µM |  |  |  |  |  |  |  |  |
| COc1ccccc1CC1=C(Nc2ccc(S(N)(=O)=O)cc2)C(=O)N(c2ccccc2)C1=O |  |  | Active | Active | > 10 µM | 0.0879 µM | 0.068 µM |  |  |  |  |  |  |  |  |
| CC(C(=O)Nc1ccc(S(N)(=O)=O)cc1)C(=O)c1ccc(Cl)cc1 (configuration not stated) | 30% | 30% | Active | Active | 0.215 µM | 0.0226 µM | 0.0343 µM |  |  |  |  |  |  |  |  |
| CCN(CC)C(=O)CNc1ccc(S(N)(=O)=O)cc1 | inactive | inactive | inactive | inactive | 0.243 µM | 0.0332 µM | 0.0891 µM |  |  |  |  |  |  |  |  |
| COC(=O)C(Nc1ccc(S(N)(=O)=O)cc1)C(=O)OC | inactive | inactive | inactive | inactive | 0.166 µM |  | 0.0581 µM |  |  |  |  |  |  |  |  |
| CCOC(=O)C(C(=O)Nc1cccc(S(N)(=O)=O)c1)C(C)C (configuration not stated) | inactive | inactive | inactive | inactive | 0.346 µM | 0.113 µM | 0.0701 µM |  |  |  |  |  |  |  |  |
| Cc1ccc(C(=O)CNc2cccc(S(N)(=O)=O)c2)cc1 | inactive | inactive | inactive | inactive | 0.294 µM | 0.208 µM | 0.0639 µM |  |  |  |  |  |  |  |  |
| CCOC(=O)C(Nc1ccc(S(N)(=O)=O)cc1)C(=O)c1ccccc1 (configuration not stated) | inactive | inactive | inactive | inactive | 0.245 µM | 0.0218 µM | 0.018 µM |  |  |  |  |  |  |  |  |
| NS(=O)(=O)c1ccc(NC2CCCCCC2=O)cc1 (configuration not stated) | 30% | 30% | inactive | inactive | 0.202 µM | 0.0492 µM | 0.0064 µM |  |  |  |  |  |  |  |  |
| CCN(CC)C(=O)CNc1cccc(S(N)(=O)=O)c1 | inactive | inactive | inactive | inactive | 0.0706 µM | 0.0837 µM | 0.0459 µM |  |  |  |  |  |  |  |  |
| CC(C)C(C(=O)Nc1ccc(S(N)(=O)=O)cc1)C(=O)c1ccccc1 (configuration not stated) | inactive | inactive | inactive | inactive | 0.183 µM | 0.0356 µM | 0.0301 µM |  |  |  |  |  |  |  |  |
| CC(C)C(C(=O)Nc1cccc(S(N)(=O)=O)c1)C(=O)c1ccccc1 (configuration not stated) | inactive | inactive | inactive | inactive | 1.36 µM | 0.0596 µM | 0.0711 µM |  |  |  |  |  |  |  |  |
| NS(=O)(=O)c1ccc(NCC(=O)N2CCN(Cc3ccc(Cl)cc3)CC2)cc1 | inactive | inactive | inactive | inactive | 0.146 µM | 0.0113 µM | 0.0212 µM |  |  |  |  |  |  |  |  |
| NS(=O)(=O)c1ccc(NC2CCN(c3ccccc3)C2=O)cc1 (configuration not stated) | inactive | inactive | inactive | inactive | 0.062 µM | 0.0249 µM | 0.0095 µM |  |  |  |  |  |  |  |  |
